We go through 34 substances from patent US20080292619A1, “Pharmaceutical Composition Containing Meltrin Antagonist” (MOCHIDA PHARMACEUTICAL CO., LTD., priority 2004, published 2008).

In the oligonucleotide strings, read from the 5' end, every base follows the letter of its sugar. An asterisk marks phosphorothioate; unmarked linkages are phosphodiester. Other units and linkages are bracketed, terminal groups are in braces. A string of capitals states the bases alone. d = 2'-deoxy (DNA)

In one data set the test system is human meltrin α RNA. Nature of the data set: Suppression of human meltrin α expression by antisense compound in RD cell (real time PCR). The class given is cell-based. As to conditions: 50 nM; RD cell; corrected by GAPDH. A digest of the protocol: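 RD cells transfected with heat-denatured antisense oligodeoxynucleotide plus Lipofectin in Opti-MEM for 4 h at 37° C, then cultured 18 h. Meltrin α RNA quantified by TaqMan RT-PCR against plasmid standard curve, GAPDH-corrected; suppression vs untreated cells, rated +/++/+++ for ≥30/50/70%.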
A general note: Quantitative PCR measures a nucleic acid by following its amplification.
Turning to “H132 + 15: gtaggaatctggcggcttcc (GTAGGAATCTGGCGGCTTCC; antisense; DNA, all phosphorothioate, methylation of C not given here)”, the “suppression rate of expression, 50 nM” value was “+ (“+” when the suppression rate was at least 30%)”. Same read-out and setting: then “H013: ctgcaccatcccacgcgggc (CTGCACCATCCCACGCGGGC; antisense; DNA, all phosphorothioate, methylation of C not given here)”, with “+ (“+” when the suppression rate was at least 30%)”.

For “H145 + 2: ttctggccagaggatctgca (dT*dT*dC*dT*dG*dG*dC*dC*dA*dG*dA*dG*dG*dA*dT*dC*dT*dG*dC*dA; antisense)”, the “suppression rate of expression, 50 nM” value was “+++ (“+++” when the suppression rate was at least 70%)”. As to “H143 + 10: tgaggggggtttggcttaca (TGAGGGGGGTTTGGCTTACA; antisense; DNA, all phosphorothioate, methylation of C not given here)”, the “suppression rate of expression, 50 nM” value is reported as “+ (“+” when the suppression rate was at least 30%)”. In the case of “H137 + 3: ggggctgagggacattcagg (GGGGCTGAGGGACATTCAGG; antisense; DNA, all phosphorothioate, methylation of C not given here)”, the “suppression rate of expression, 50 nM” value is on record as “++ (“++” when the suppression rate was at least 50%)”.

With “H136 + 18: tgagggacattcaggccgtt (TGAGGGACATTCAGGCCGTT; antisense; DNA, all phosphorothioate, methylation of C not given here)”, the “suppression rate of expression, 50 nM” value was “++ (“++” when the suppression rate was at least 50%)”. In the case of “H145: ctggccagaggatctgcagg (CTGGCCAGAGGATCTGCAGG; antisense; DNA, all phosphorothioate, methylation of C not given here)”, the “suppression rate of expression, 50 nM” value was “+++ (“+++” when the suppression rate was at least 70%)”. On the same count and under the same terms, in the case of “H143 + 5: ggggtttggcttacaggtcc (GGGGTTTGGCTTACAGGTCC; antisense; DNA, all phosphorothioate, methylation of C not given here)” it was “++ (“++” when the suppression rate was at least 50%)”; in that of “H148 + 5: ccaggcggagcccagtctcc (dC*dC*dA*dG*dG*dC*dG*dG*dA*dG*dC*dC*dC*dA*dG*dT*dC*dT*dC*dC; antisense)”, “+ (“+” when the suppression rate was at least 30%)”. “H133 + 5: ccttcggtgggtaggaatct (CCTTCGGTGGGTAGGAATCT; antisense; DNA, all phosphorothioate, methylation of C not given here)”: the “suppression rate of expression, 50 nM” value is listed as “+ (“+” when the suppression rate was at least 30%)”. With “H149 + 10: tattgtggagcaggtctgag (dT*dA*dT*dT*dG*dT*dG*dG*dA*dG*dC*dA*dG*dG*dT*dC*dT*dG*dA*dG; antisense)”, the “suppression rate of expression, 50 nM” value is recorded as “+ (“+” when the suppression rate was at least 30%)”.

For the substance “H144 + 10: gatctgcaggcagaggcttc (GATCTGCAGGCAGAGGCTTC; antisense; DNA, all phosphorothioate, methylation of C not given here)”, the “suppression rate of expression, 50 nM” value was “+++ (“+++” when the suppression rate was at least 70%)”.

With “H136 + 15: gggacattcaggccgttgag (GGGACATTCAGGCCGTTGAG; antisense; DNA, all phosphorothioate, methylation of C not given here)”, the “suppression rate of expression, 50 nM” value is on record as “+ (“+” when the suppression rate was at least 30%)”.

Take “H219: ttcaaggggatgctgcccaa (dT*dT*dC*dA*dA*dG*dG*dG*dG*dA*dT*dG*dC*dT*dG*dC*dC*dC*dA*dA; antisense)”: the “suppression rate of expression, 50 nM” value is “+ (“+” when the suppression rate was at least 30%)”. On to “H144 + 7: ctgcaggcagaggcttctga (CTGCAGGCAGAGGCTTCTGA; antisense; DNA, all phosphorothioate, methylation of C not given here)”, for which the “suppression rate of expression, 50 nM” value is on record as “++ (“++” when the suppression rate was at least 50%)”. Still for that read-out and setting: then “H142: gcctgcctaagtgcaggctt (GCCTGCCTAAGTGCAGGCTT; antisense; DNA, all phosphorothioate, methylation of C not given here)”, with “++ (“++” when the suppression rate was at least 50%)”; and “H016: gggcgcgctgccatcgtcgc (GGGCGCGCTGCCATCGTCGC; antisense; DNA, all phosphorothioate, methylation of C not given here)”, with “+ (“+” when the suppression rate was at least 30%)”; and “H006: tttccccccgtgtgtgtgcg (TTTCCCCCCGTGTGTGTGCG; antisense; DNA, all phosphorothioate, methylation of C not given here)”, with “++ (“++” when the suppression rate was at least 50%)”. As to “H139 + 16: gctaggtgcacgtggggccc (GCTAGGTGCACGTGGGGCCC; antisense; DNA, all phosphorothioate, methylation of C not given here)”, the “suppression rate of expression, 50 nM” value is “++ (“++” when the suppression rate was at least 50%)”. Same read-out and setting: then “H132 + 17: gggtaggaatctggcggctt (GGGTAGGAATCTGGCGGCTT; antisense; DNA, all phosphorothioate, methylation of C not given here)”, with “++ (“++” when the suppression rate was at least 50%)”.

Still in this data set, the particulars now being: 200 nM; RD cell; corrected by GAPDH.
In the case of “H013: ctgcaccatcccacgcgggc (CTGCACCATCCCACGCGGGC; antisense; DNA, all phosphorothioate, methylation of C not given here)”, the “suppression rate of expression, 200 nM” value is reported as “++ (“++” when the suppression rate was at least 50%)”. In the case of “H055: tccacgcctaccaacacgat (dT*dC*dC*dA*dC*dG*dC*dC*dT*dA*dC*dC*dA*dA*dC*dA*dC*dG*dA*dT; antisense)”, the “suppression rate of expression, 200 nM” value was “++ (“++” when the suppression rate was at least 50%)”. Take “H026: gtcgaatattcagcacttct (GTCGAATATTCAGCACTTCT; antisense; DNA, all phosphorothioate, methylation of C not given here)”: the “suppression rate of expression, 200 nM” value is recorded as “+ (“+” when the suppression rate was at least 30%)”. In the case of “H239: ttggaatgtattagagctgg (DNA dT*dT*dG*dG*dA*dA*dT*dG*dT*dA*dT*dT*dA*dG*dA*dG*dC*dT*dG*dG; antisense)”, the “suppression rate of expression, 200 nM” value is given as “+ (“+” when the suppression rate was at least 30%)”.

In the case of “H094: atgccattgtagcagtagcc (dA*dT*dG*dC*dC*dA*dT*dT*dG*dT*dA*dG*dC*dA*dG*dT*dA*dG*dC*dC; antisense)”, the “suppression rate of expression, 200 nM” value is “+ (“+” when the suppression rate was at least 30%)”.

As to “H156: taaaagttggtacaaaaaac (dT*dA*dA*dA*dA*dG*dT*dT*dG*dG*dT*dA*dC*dA*dA*dA*dA*dA*dA*dC; antisense)”, the “suppression rate of expression, 200 nM” value is “+ (“+” when the suppression rate was at least 30%)”. Same read-out and setting: in the case of “H017: gggcgggggacacgggcagc (GGGCGGGGGACACGGGCAGC; antisense; DNA, all phosphorothioate, methylation of C not given here)” it was “++ (“++” when the suppression rate was at least 50%)”; in that of “H145: ctggccagaggatctgcagg (CTGGCCAGAGGATCTGCAGG; antisense; DNA, all phosphorothioate, methylation of C not given here)”, “+++ (“+++” when the suppression rate was at least 70%)”; in that of “H152: cttctcacttaatataggcg (dC*dT*dT*dC*dT*dC*dA*dC*dT*dT*dA*dA*dT*dA*dT*dA*dG*dG*dC*dG; antisense)”, “+ (“+” when the suppression rate was at least 30%)”. On the same count and under the same terms, then “H049: cggttgtctgccacgatcac (dC*dG*dG*dT*dT*dG*dT*dC*dT*dG*dC*dC*dA*dC*dG*dA*dT*dC*dA*dC; antisense)”, with “+ (“+” when the suppression rate was at least 30%)”.

As to “H021: tcttccttggttccataagc (TCTTCCTTGGTTCCATAAGC; antisense; DNA, all phosphorothioate, methylation of C not given here)”, the “suppression rate of expression, 200 nM” value is “+ (“+” when the suppression rate was at least 30%)”. The same measure, in the same setting: in the case of “H165: aaaactcagtgatggtaaaa (dA*dA*dA*dA*dC*dT*dC*dA*dG*dT*dG*dA*dT*dG*dG*dT*dA*dA*dA*dA; antisense)” it was “+ (“+” when the suppression rate was at least 30%)”. In the case of “H045: agagggtggtggaaacacat (AGAGGGTGGTGGAAACACAT; antisense; DNA, all phosphorothioate, methylation of C not given here)”, the “suppression rate of expression, 200 nM” value is recorded as “++ (“++” when the suppression rate was at least 50%)”. Take “H126: cagcagtcgtatcaaggtct (CAGCAGTCGTATCAAGGTCT; antisense; DNA, all phosphorothioate, methylation of C not given here)”: the “suppression rate of expression, 200 nM” value is “+ (“+” when the suppression rate was at least 30%)”. The same measure, in the same setting: in the case of “H104: gccggctggcacctccttga (dG*dC*dC*dG*dG*dC*dT*dG*dG*dC*dA*dC*dC*dT*dC*dC*dT*dT*dG*dA; antisense)” it was “+++ (“+++” when the suppression rate was at least 70%)”; in that of “H219: ttcaaggggatgctgcccaa (dT*dT*dC*dA*dA*dG*dG*dG*dG*dA*dT*dG*dC*dT*dG*dC*dC*dC*dA*dA; antisense)”, “+++ (“+++” when the suppression rate was at least 70%)”. With “H142: gcctgcctaagtgcaggctt (GCCTGCCTAAGTGCAGGCTT; antisense; DNA, all phosphorothioate, methylation of C not given here)”, the “suppression rate of expression, 200 nM” value is given as “++ (“++” when the suppression rate was at least 50%)”. Regarding “H016: gggcgcgctgccatcgtcgc (GGGCGCGCTGCCATCGTCGC; antisense; DNA, all phosphorothioate, methylation of C not given here)”, the “suppression rate of expression, 200 nM” value is reported as “++ (“++” when the suppression rate was at least 50%)”.

Regarding “H006: tttccccccgtgtgtgtgcg (TTTCCCCCCGTGTGTGTGCG; antisense; DNA, all phosphorothioate, methylation of C not given here)”, the “suppression rate of expression, 200 nM” value is given as “++ (“++” when the suppression rate was at least 50%)”.

The data set is the same for the next values; noted with them: 200 nM; chimeric 2′-methoxy antisense oligonucleotides; RD cell.
On to “H076-OMe1: chimeric antisense oligonucleotide GCTGGtctccaagtcCTTCC, uppercase 2′-methoxy nucleotides, lowercase phosphorothioate nucleotides (GCTGGTCTCCAAGTCCTTCC; 2'-O-methyl at 1, 2, 3, 4, 5, 16, 17, 18, 19, 20, other sugars, backbone and T or U not given here; lowercase gap nucleotides phosphorothioate)”, for which the “suppression rate of expression, 200 nM” value was “++ (“++” when the suppression rate was at least 50%)”.
